Assay results: ChEMBL document CHEMBL4382262, “Structurally Simple, Readily Available Peptidomimetic 1-Benzyl-5-methyl-4-( n-octylamino)pyrimidin-2(1 H)-one Exhibited Efficient Cardioprotection in a Myocardial Ischemia (MI) Mouse Model” (J Med Chem, 2018)
Calls of active or inactive are those of the source. The calls are words filed in the database; no cut-off is given here.

Columns and labels:
[1] = biological target: T1, Toll-like receptor 4 (Rattus norvegicus) (UniProt Q9QX05); assay: Inhibition of TLR4 in Sprague-Dawley rat cardiomyocytes assessed as reduction in hypoxia-induced creatine kinase levels at 20 uM preincubated for 1 hr followed by hypoxia for 3 hrs by NADP reduction based colorimetric analysis; assay type: cell-based
T1 sequence (whole entry): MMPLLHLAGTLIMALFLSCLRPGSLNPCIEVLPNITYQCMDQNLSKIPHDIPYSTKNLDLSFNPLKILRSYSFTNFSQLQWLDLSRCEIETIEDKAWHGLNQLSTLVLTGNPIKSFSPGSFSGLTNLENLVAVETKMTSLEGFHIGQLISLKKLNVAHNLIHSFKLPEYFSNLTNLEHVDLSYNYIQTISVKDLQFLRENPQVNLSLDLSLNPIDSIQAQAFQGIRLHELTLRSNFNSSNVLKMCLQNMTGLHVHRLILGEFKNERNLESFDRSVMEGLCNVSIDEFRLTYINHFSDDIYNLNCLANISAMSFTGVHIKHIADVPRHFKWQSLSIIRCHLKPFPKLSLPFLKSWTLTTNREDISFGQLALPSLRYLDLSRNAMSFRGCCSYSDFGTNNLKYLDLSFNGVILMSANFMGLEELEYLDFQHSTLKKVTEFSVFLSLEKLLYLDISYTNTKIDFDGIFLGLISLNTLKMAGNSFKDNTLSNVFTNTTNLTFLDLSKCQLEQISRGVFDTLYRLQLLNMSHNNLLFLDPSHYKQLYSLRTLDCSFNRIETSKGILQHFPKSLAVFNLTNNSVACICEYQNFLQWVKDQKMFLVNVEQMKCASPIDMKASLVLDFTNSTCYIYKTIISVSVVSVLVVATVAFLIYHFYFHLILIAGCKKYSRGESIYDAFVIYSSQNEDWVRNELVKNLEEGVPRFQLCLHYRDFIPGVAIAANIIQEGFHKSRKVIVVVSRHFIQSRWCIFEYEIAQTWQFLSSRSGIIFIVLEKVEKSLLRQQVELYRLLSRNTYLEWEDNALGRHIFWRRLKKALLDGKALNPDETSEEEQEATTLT

Mus musculus [2] = assay: Cardioprotective activity in C57BL mouse model of left anterior descending coronary artery ligation-induced myocardial ischemia assessed as reduction in heart infarct size at 0.3 mg/kg, iv treated 1 hr after left anterior descending coronary artery ligation and measured after 24 hrs post LAD; assay type: functional, organism-based
Mus musculus [3] = assay: (§1) Cardioprotective activity in C57BL mouse model of left anterior descending coronary artery ligation-induced myocardial ischemia assessed as reduction in creatine kinase levels at 0.3 mg/kg, iv treated 1 hr after by left anterior descending coronary artery ligation and measured after 7 days post LAD; assay type: functional, organism-based
[4] = biological target: T1, Toll-like receptor 4 (Rattus norvegicus); assay: Inhibition of TLR4 in Sprague-Dawley rat cardiomyocytes assessed as reduction in hypoxia-induced IRF3 protein expression at 20 uM preincubated for 1 hr followed by hypoxia for 3 hrs by Western blot analysis relative to untreated control; assay type: cell-based
Mus musculus [5] = assay: Cardioprotective activity in C57BL mouse model of left anterior descending coronary artery ligation-induced myocardial ischemia assessed as reduction in heart infarct size at 0.3 mg/kg, iv treated 1 hr after left anterior descending coronary artery ligation and measured after 7 days post LAD; assay type: functional, organism-based
Mus musculus [6] = assay: Cardioprotective activity in C57BL mouse model of left anterior descending coronary artery ligation-induced myocardial ischemia assessed as reduction in troponin levels at 0.3 mg/kg, iv pretreated for 1 hr followed by left anterior descending coronary artery ligation; assay type: functional, organism-based
[7] = biological target: T1, Toll-like receptor 4 (Rattus norvegicus); assay: Inhibition of TLR4 in Sprague-Dawley rat cardiomyocytes assessed as reduction in hypoxia-induced LDH release at 30 uM preincubated for 1 hr followed by hypoxia for 3 hrs by NADH detection based colorimetric analysis; assay type: cell-based
[8] = biological target: T1, Toll-like receptor 4 (Rattus norvegicus); assay: Inhibition of TLR4 in Sprague-Dawley rat cardiomyocytes assessed as reduction in hypoxia-induced creatine kinase levels at 20 uM preincubated for 1 hr followed by induction of hypoxia measured after 3 hrs by NADP reduction based colorimetric analysis; assay type: cell-based
[9] = biological target: T1, Toll-like receptor 4 (Rattus norvegicus); assay: Binding affinity to TLR4 in Sprague-Dawley rat cardiomyocytes at 20 uM after 2 hrs by MS/MS-based pull down assay; assay type: cell-based
Mus musculus [10] = assay: as §1, with “leukocyte infiltration” for “creatine kinase levels”, “after” for “after by”, “LAD by hematoxylin/eosin staining based light microscopy” for “LAD”; assay type: functional, organism-based
Mus musculus [11] = assay: as §1, with “levels levels” for “levels”, “24 hrs” for “7 days”; assay type: functional, organism-based

Q: For `CCCCCCCCNc1nc(=O)n(Cc2ccccc2)cc1C`, which inhibition [1] is on record?
A: Its inhibition is “Active”.

Q: What about the Activity (Mus musculus [2]) of the same molecule?
A: Its Activity is “inactive”.

Q: What about the Activity (Mus musculus [3]) of the same molecule?
A: The Activity was “Active”.

Q: What about the fold change (FC) [4] of the same molecule?
A: The fold change (FC) was 2.7.

Q: And the Activity (Mus musculus [5])?
A: Its Activity is “Active”.

Q: And the Activity (Mus musculus [6])?
A: The Activity was “Active”.

Q: And the inhibition [7]?
A: The inhibition was “Active”.

Q: And the inhibition [8]?
A: Its inhibition is “Active”.

Q: And the Activity [9]?
A: The Activity was “Active”.

Q: What about the Activity (Mus musculus [10]) of the same molecule?
A: Its Activity is “Active”.

Q: And the Activity (Mus musculus [11])?
A: Its Activity is “Active”.
